Data on 15 compounds can be found in patent publication US8883763B2 (Universite Joseph Fourier, priority 2010, dated 2014).

A value given as a limit tells only on which side of the number the result lay.

A word on the IC50: it is the concentration needed to halve the response being measured. In general, GI50 refers to the concentration giving 50% growth inhibition. A word on the melting point: it is the temperature, or range, at which the solid turns liquid.

The target in data set [1] is T1, PP1α (PP1CA) (Oryctolagus cuniculus, UniProt P62139).
T1 construct: purchased New England Biolabs P0754
T1 sequence (P62139 whole entry): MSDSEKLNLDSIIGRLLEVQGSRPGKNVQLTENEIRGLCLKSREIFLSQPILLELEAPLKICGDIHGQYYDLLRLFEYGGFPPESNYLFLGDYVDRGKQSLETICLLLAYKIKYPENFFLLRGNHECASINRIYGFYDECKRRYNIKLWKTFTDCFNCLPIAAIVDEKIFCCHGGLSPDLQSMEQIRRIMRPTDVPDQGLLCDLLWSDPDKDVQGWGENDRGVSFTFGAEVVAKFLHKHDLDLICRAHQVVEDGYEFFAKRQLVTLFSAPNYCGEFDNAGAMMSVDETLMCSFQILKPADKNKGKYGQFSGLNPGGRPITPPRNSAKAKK
The data set is described as follows: Protein phosphatase test (PP1 activity, DiFMUP fluorescent substrate). The data set is classed as biochemical. The following applies: PP1CA at 80 mU, fluorescent substrate (50 μM), molecules from 50 μM to 50 nM; read-out: PP1 Inhibition IC50. The gist of the method:
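PP1α (30 or 80 mU) in 100 mM Tris-HCl pH 7.5, 4 mM DTT, 0.2 mM EDTA, 0.5 mM MnCl2 was preincubated 15 min with compound (50 μM to 50 nM), then given 60 μM DiFMUP for 20 min at 37 °C. Phosphatase activity was read as fluorescence at 355-460 nm, three times in duplicate.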

In data set [2] the test system is HMEC cells. Put plainly: Proliferation of HMEC cells (GI50). The data set is classed as cell-based. The settings on record: Homo sapiens, 120 h, 50 μM to 1 nM for 5 days. The method, boiled down: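 Cells seeded at 1,000/well (10% confluence) and exposed 5 days (120 h) to compound from 1 nM up to 50–100 μM. Live cells counted by Hoechst 33342 staining under fluorescence microscopy; GI50 is concentration halving proliferation versus control, mean of two triplicate experiments.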

The subject of data set [3] is bovine brain tubulin. Put plainly: In vitro tubulin polymerization test (turbidimetry at 350 nm). The format is biochemical. The settings on record: molecules at 50 μM, calculated at t=3000 s, DMSO control = 100%. The method, boiled down: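 Bovine brain tubulin was assembled at 37 °C in BRB80 (80 mM K-PIPES pH 6.8, 1 mM MgCl2, 1 mM EGTA) with 1 mM GTP. The 50 μM tests used compounds at 50 μM, run in triplicate. Turbidity at 350 nm was read at t=3000 s and expressed relative to control taken as 100%.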

Data set [4] deals with HeLa cells. Put plainly: Indirect immunofluorescence: effect on HeLa cells (mitotic arrest, microtubule depolymerization). The data set is classed as cell-based, human. The following applies: 24 hours; for Effect on Hela at 25 μM: mitotic index and/or depolymerization of the MTs. Further details: key to Effect on Hela at 25 μM / Effect on Hela at 100 μM / Effect on Hela at 50 and 100 μM / Effect on Hela at 50 μM: —: −: no activity on the cells at 25 μM (if there is an effect at high concentrations, this is specified in the table).; *: weak activity (MA and/or slight depolymerization of the MTs and/or slight inhibition of proliferation),; **: average activity (MA and/or moderate depolymerization of the MTs and/or moderate inhibition of proliferation),; ***: strong activity (MA and/or pronounced depolymerization of the MTs and/or pronounced inhibition of proliferation),; ****: very strong activity (MA and/or very pronounced depolymerization of the MTs and/or strong inhibition of proliferation). The gist of the method: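 HeLa cells exposed 24 h to compound (100 μM to 50 nM; primary series 1–10 μM), DMSO controls. PFA/glutaraldehyde-fixed cells immunostained for α-tubulin, actin (phalloidin) and DNA (Hoechst); fluorescence microscopy scored phenotypes and mitotic index, with mitotic index and/or MT depolymerization evaluated at 25 μM.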

The subject of data set [5] is PP1C. The data set is described as follows: Affinity chromatography on immobilized compound and immunoblotting. The settings on record: Xenopus egg extracts; immunoblot anti-PP1C and anti-PP2A; PP2A only traces as in control. The format is binding, Xenopus laevis. Here is the method: Xenopus egg cytoplasmic extracts were prepared from unfertilized Xenopus laevis eggs according to the method described (Desai A et al., Methods Cell Biol. 1999; 61: pp 385-412).
The molecule 37 was immobilized on a sepharose resin activated by an N-hydroxysuccinimide (NHS) group (GE Healthcare #17-0906-01) as follows: 100 μg of the molecule 37 per ml of NHS Sepharose in PBS, pH 8.3, for 1 hour at ambient temperature. The sepharose coupled with molecule 37 was designated “compound 6” resin, whereas in parallel, another “control” resin was produced with incubation in 0.5 M Monoethanolamine (MEA), pH 8.3, under the same conditions, in order to neutralize the NHS functions. After several washings with PBS, pH 8.3, the NHS functions remaining free were blocked with 0.5 M MEA for 30 minutes. Once they had been thoroughly washed with PBS, the “control” and “compound 6” resins were incubated with 1 ml of Xenopus egg extracts diluted 1:1 in CSF-XB buffer containing protease inhibitors (#1 873 580 Roche®), for 1 hour under stirring at 4° C. After 2 washings with PBST, the proteins of the extract remaining attached were eluted with 100 μl of electrophoresis SDS charge buffer (Laemmli, U.K., Cleavage of structural proteins during the assembly of the head of bacteriophage T4. Nature 1970; 227, 680-685) enriched with 6M urea. […]

The conditions of data set [6]: trials discontinued; cited from earlier work.
Data set [7] concerns PP1 and PP2A. The settings on record: cited from earlier work.
For data set [8] the following is noted: due to its structural instability; cited from earlier work.

Turning to `C#Cc1ccc(-c2[nH]c(=O)c3cc(OC)ccc3c2[N+](=O)[O-])cc1` [Compound 36, 3-(4-Ethynylphenyl)-7-methoxy-4-nitroisoquinolin-1(2H)-one], the melting point was in the range of 246 to 248 °C. Moreover, the IC50 in data set [1] was 10 to 24 µM. Moreover, the GI50 in [2] is at most 0.1 µM. Besides, in [3], the Tubulin polymerization inhibition entry was “+++ ((+++) signifies that the molecule induces tubulin assembly inhibition in vitro of more than 50% with respect to the DMSO control.)”. For the same compound, the “Effect on Hela at 25 μM” value in data set [4] is recorded as “****”.

As for `COc1ccc2c([N+](=O)[O-])c(-c3ccc(OCCOCCOCCOCCN)cc3)[nH]c(=O)c2c1` [Compound 37, 3-(4-(2-(2-(2-(2-Aminoethoxy)ethoxy)ethoxy)ethoxy)phenyl)-7-methoxy-4-nitroisoquinolin-1(2H)-one], the IC50 in data set [1] is over 50 µM. For the same compound, in data set [5], the “retention of PP1C by compound immobilized on sepharose resin” value was “specifically retains PP1C”. The GI50 in data set [2] was 25 to 50 µM. Moreover, the Tubulin polymerization inhibition entry in data set [3] was “— ((−) signifies that the molecule induces little or no tubulin assembly inhibition in vitro: 0+ or − −5% of the DMSO control.)”. For the same compound, in data set [4], the “Effect on Hela at 25 μM” value is “—”.

`C#Cc1c(-c2ccc(OC)cc2)nc(OC)c2cc(OC)ccc12` [Compound 38, 4-Ethynyl-1,7-dimethoxy-3-(4-methoxyphenyl)isoquinoline] yielded a melting point of 209 to 210 °C. Also, the IC50 in [1] was over 50 µM. Besides, in data set [2], the GI50 was over 50 µM. For the same compound, the Tubulin polymerization inhibition entry in data set [3] was “+ ((+) signifies that the molecule induces tubulin assembly inhibition in vitro comprised between 6 and 25% of the DMSO control.)”. Moreover, the “Effect on Hela at 25 μM” value in data set [4] is given as “—”.

Regarding `COc1ccc(-c2[nH]c(=O)c3cc(OC)ccc3c2-n2cccc2)cc1` [Compound 39, 4-(Pyrrol-1-yl)-7-methoxy-3-(4-methoxyphenyl)isoquinoline-1(2H)-one], the melting point was 238 °C. The IC50 in data set [1] is 10 to 24 µM. This compound had a GI50 in data set [2] of 0.1 to 1 µM. In data set [3], the Tubulin polymerization inhibition result is “+ ((+) signifies that the molecule induces tubulin assembly inhibition in vitro comprised between 6 and 25% of the DMSO control.)”. In addition, in data set [4], the “Effect on Hela at 25 μM” value is listed as “—”.

`COc1ccc(-c2[nH]c(=O)c3cc(OC)ccc3c2N2CCCCC2)cc1` [Compound 40, 4-(Piperidin-1-yl)-7-methoxy-3-(4-methoxyphenyl)isoquinoline-1(2H)-one] showed a melting point of 206 °C. For the same compound, the IC50 in [1] was over 50 µM. The same compound gave a GI50 in data set [2] of 0.1 to 1 µM. Besides, the Tubulin polymerization inhibition entry in data set [3] was “+++ ((+++) signifies that the molecule induces tubulin assembly inhibition in vitro of more than 50% with respect to the DMSO control.)”. Further, the “Effect on Hela at 25 μM” value in [4] is “—”.

With `COc1ccc2cc(-c3ccc(OCc4ccccc4)cc3)[nH]c(=O)c2c1` [Compound 44, 3-(4-(Benzyloxy)phenyl)-7-methoxyisoquinolin-1(2H)-one], the melting point was over 260 °C. The IC50 in data set [1] fell in the range of 10 to 24 µM. In data set [2], this compound gave a GI50 of 25 to 50 µM. In data set [3], the Tubulin polymerization inhibition result is reported as “— ((−) signifies that the molecule induces little or no tubulin assembly inhibition in vitro: 0+ or − −5% of the DMSO control.)”. In addition, the “Effect on Hela at 25 μM” value in data set [4] is “—”.

`COc1ccc2cc(-c3ccc(O)cc3)[nH]c(=O)c2c1` [Compound 45, 3-(4-Hydroxyphenyl)-7-methoxyisoquinolin-1(2H)-one] displayed a melting point of 255 °C. Besides, in data set [1], the IC50 was over 50 µM. In data set [2], this compound returned a GI50 of 0.1 to 1 µM. For the same compound, the Tubulin polymerization inhibition entry in data set [3] is “++ ((++) signifies that the molecule induces tubulin assembly inhibition in vitro comprised between 26 and 50% of the DMSO control.)”. Moreover, the “Effect on Hela at 25 μM” value in data set [4] is “****”.

On to `COc1ccc2c([N+](=O)[O-])c(-c3ccc(OCc4ccccc4)cc3)[nH]c(=O)c2c1` [Compound 46, 3-(4-(Benzyloxy)phenyl)-7-methoxy-4-nitroisoquinolin-1(2H)-one], for which the melting point was 252 to 254 °C. In addition, in data set [1], the IC50 lay within 10 to 24 µM. This compound registered a GI50 in data set [2] of over 50 µM. The Tubulin polymerization inhibition entry in data set [3] is “+ ((+) signifies that the molecule induces tubulin assembly inhibition in vitro comprised between 6 and 25% of the DMSO control.)”. Further, the “Effect on Hela at 25 μM” value in data set [4] was “—”.

The compound `COC(=O)c1nnn(-c2c(-c3ccc(OC)cc3)[nH]c(=O)c3cc(OC)ccc23)c1C(=O)OC` [Compound 48, Dimethyl 1-[7-methoxy-3-(4-methoxyphenyl)-1-oxo-1,2-dihydroisoquinolin-4-yl]-1H-[1,2,3]triazole-4,5-dicarboxylate] displayed a melting point of 220 °C. The IC50 in data set [1] was over 50 µM. The compound also registered a GI50 in data set [2] of 25 to 50 µM. In data set [3], the Tubulin polymerization inhibition entry is “— ((−) signifies that the molecule induces little or no tubulin assembly inhibition in vitro: 0+ or − −5% of the DMSO control.)”. For the same compound, the “Effect on Hela at 25 μM” value in data set [4] is recorded as “—”. For the same compound, the “Effect on Hela at 50 μM” value in [4] (50 μM) is reported as “*”.

Consider `COc1ccc(-c2[nH]c(=O)c3cc(OC)ccc3c2N2CCOCC2)cc1` [Compound 49, 7-Methoxy-3-(4-methoxyphenyl)-4-morpholinoisoquinolin-1(2H)-one], for which the melting point came out at 139 °C. Further, the IC50 in [1] is over 50 µM. In data set [2], this compound displayed a GI50 of 0.1 to 1 µM. Further, in data set [3], the Tubulin polymerization inhibition entry was “+ ((+) signifies that the molecule induces tubulin assembly inhibition in vitro comprised between 6 and 25% of the DMSO control.)”. Besides, the “Effect on Hela at 25 μM” value in data set [4] is listed as “**”.

As for `C[C@@]12C(=O)OC(=O)[C@]1(C)[C@H]1CC[C@@H]2O1` [cantharidin], in [6], the “toxicity in clinical trials” value is given as “too-high nephrotoxicity”.

`C[C@@](O)(/C=C/[C@H]1CC=CC(=O)O1)[C@@H](C[C@@H](O)\C=C/C=C\C=C\CO)OP(=O)(O)O` [fostriecin]: the “selectivity for PP2A” value in [7] (PP2A relative to PP1) is given as 40,000 times. Also, in data set [8], the “activity in phase I clinical trial” value was “inactive”.

As for `CO[C@H]([C@H](O)CC(=O)[C@@H](C)[C@@H](O)CC[C@@H](C)[C@@H]1O[C@]2(CC[C@@H](C)[C@H](CC[C@H](C)C(C)=O)O2)CC[C@@H]1C)[C@H](OC(=O)C[C@@H](O)C1=C(C)C(=O)OC1=O)C(C)C` [tautomycin], the “selectivity for PP1 relative to PP2A” value in [7] is 4 times.

As for Phosphatidic acid, in data set [7], the “selectivity for PP1 relative to PP2A” value was 100 times.

With tautomycetin, the “selectivity for PP1 relative to PP2A” value in data set [7] was 40 times.
